According to paper PMC9186362, “Design and biological evaluation of substituted 5,7-dihydro-6H-indolo[2,3-c]quinolin-6-one as novel selective Haspin inhibitors” (Journal of Enzyme Inhibition and Medicinal Chemistry, 2022):

Tests used:
Test in all cases: LanthaScreen Binding - Eu-anti-GST
Details in all cases: read-out: Percentage of inhibition
[1] = target: T1, DDR2 (Homo sapiens, UniProt Q16832)
T1 construct: purchased Life Technologies
Description: (§1) We further evaluated the selectivity profile of compound 55 on a larger panel of kinases (SelectScreen Whole Panel, Life Technologies). The inhibition profile of 55, evaluated at 1 μM, is depicted on a dendrogram on Figure 3 where kinases inhibited by a minimum of 80% are shown. A full list of the kinases tested is shown on Table S1 in supplementary information.

[2] = target: T2, RET G691S (Homo sapiens, UniProt P07949, G691S)
T2 construct: purchased Life Technologies (SelectScreen service)
Description: as §1

[3] = target: T3, CDK13/cyclin K (Homo sapiens, UniProt Q14004)
T3 construct: purchased Life Technologies (SelectScreen Whole Panel service)
Description: as §1

[4] = target: CDK9 (Inactive) (Homo sapiens, UniProt P50750)
Description: as §1

[5] = target: T4, RIPK3 (Homo sapiens, UniProt Q9Y572)
T4 construct: purchased Life Technologies (SelectScreen Whole Panel)
Description: as §1

[6] = target: HUNK (Homo sapiens, UniProt P57058)
Description: as §1

[7] = target: T5, DDR2 N456S (Homo sapiens, UniProt Q16832, N456S)
T5 construct: purchased Life Technologies
Description: as §1

[8] = target: ACVR2B (Homo sapiens, UniProt Q13705)
Description: as §1

[9] = target: T6, KIT D820E (Homo sapiens, UniProt P10721, D820E)
T6 construct: purchased Life Technologies (SelectScreen service)
Description: as §1

[10] = target: T7, ERN1 (Homo sapiens, UniProt O75460)
T7 construct: purchased Life Technologies (SelectScreen Whole Panel service)
Description: as §1

[11] = target: T8, ABL1 Q252H (Homo sapiens, UniProt P00519, Q252H)
T8 construct: purchased Life Technologies (SelectScreen service)
Description: as §1

[12] = target: T9, KIT A829P (Homo sapiens, UniProt P10721, A829P)
T9 construct: purchased Life Technologies (SelectScreen service)
Description: as §1

[13] = target: T10, FYN A (Homo sapiens, UniProt P06241)
T10 construct: purchased Life Technologies (SelectScreen Whole Panel service)
Description: as §1

[14] = target: T11, PLK4 (Homo sapiens, UniProt O00444)
T11 construct: purchased Life Technologies (SelectScreen Whole Panel)
Description: as §1

[15] = target: T12, MASTL (Homo sapiens, UniProt Q96GX5)
T12 construct: purchased Life Technologies (SelectScreen Whole Panel)
Description: as §1

[16] = target: T13, CDK11/cyclin C (Homo sapiens, UniProt Q9BWU1)
T13 construct: purchased Life Technologies
Description: as §1

[17] = target: T14, LATS2 (Homo sapiens, UniProt Q9NRM7)
T14 construct: purchased Life Technologies (SelectScreen service)
Description: as §1

[18] = target: T15, PRKACB (PRKAC beta) (Homo sapiens, UniProt P22694)
T15 construct: purchased Life Technologies
Description: as §1

[19] = target: T16, LIMK2 (Homo sapiens, UniProt P53671)
T16 construct: purchased Life Technologies (SelectScreen Whole Panel service)
Description: as §1

[20] = target: T17, ACVRL1 (ALK1) (Homo sapiens, UniProt P37023)
T17 construct: purchased Life Technologies (SelectScreen service)
Description: as §1

[21] = target: ABL1 H396P (Homo sapiens, UniProt P00519, H396P)
Description: as §1

[22] = target: T18, WEE1 (Homo sapiens, UniProt P30291)
T18 construct: purchased Life Technologies (SelectScreen Whole Panel service)
Description: as §1

[23] = target: SIK3 (Homo sapiens, UniProt Q9Y2K2)
Description: as §1

[24] = target: T19, SLK (Homo sapiens, UniProt Q9H2G2)
T19 construct: purchased Life Technologies
Description: as §1

[25] = target: T20, EIF2AK2 (PKR) (Homo sapiens, UniProt P19525)
T20 construct: purchased Life Technologies (SelectScreen service)
Description: as §1

[26] = target: T21, FGFR3 G697C (Homo sapiens, UniProt P22607, G697C)
T21 construct: purchased Life Technologies
Description: as §1

[27] = target: T22, BRAF (Homo sapiens, UniProt P15056)
T22 construct: purchased Life Technologies (SelectScreen Whole Panel)
Description: as §1

[28] = target: T23, MAP4K1 (HPK1) (Homo sapiens, UniProt Q92918)
T23 construct: purchased Life Technologies (SelectScreen service)
Description: as §1

[29] = target: CDK2/cyclin O (Homo sapiens, UniProt P24941)
Description: as §1

[30] = target: T24, EGFR (ErbB1) d747-749 A750P (Homo sapiens, UniProt P00533, A750P/DEL747-749)
T24 construct: purchased Life Technologies
Description: as §1

[31] = target: MAP3K10 (MLK2) (Homo sapiens, UniProt Q02779)
Description: as §1

[32] = target: T25, ALK T1151_L1152insT (Homo sapiens, UniProt Q9UM73, INS1151T)
T25 construct: purchased Life Technologies
Description: as §1

[33] = target: ADCK3 (Homo sapiens, UniProt Q8NI60)
Description: as §1

[34] = target: T26, RAF1 (cRAF) Y340D Y341D (Homo sapiens, UniProt P04049, Y340D/Y341D)
T26 construct: purchased Life Technologies
Description: as §1

[35] = target: T27, CDK3/cyclin E1 (Homo sapiens, UniProt Q00526)
T27 construct: purchased Life Technologies (SelectScreen Whole Panel)
Description: as §1

[36] = target: T28, ALK L1196M (Homo sapiens, UniProt Q9UM73, L1196M)
T28 construct: purchased Life Technologies (SelectScreen Whole Panel service)
Description: as §1

[37] = target: T29, STK17A (DRAK1) (Homo sapiens, UniProt Q9UEE5)
T29 construct: purchased Life Technologies
Description: as §1

[38] = target: T30, MLK4 (Homo sapiens, UniProt Q5TCX8)
T30 construct: purchased Life Technologies (SelectScreen Whole Panel service)
Description: as §1

[39] = target: T31, KIT D816H (Homo sapiens, UniProt P10721, D816H)
T31 construct: purchased Life Technologies (SelectScreen service)
Description: as §1

T10 sequence (P06241 whole entry): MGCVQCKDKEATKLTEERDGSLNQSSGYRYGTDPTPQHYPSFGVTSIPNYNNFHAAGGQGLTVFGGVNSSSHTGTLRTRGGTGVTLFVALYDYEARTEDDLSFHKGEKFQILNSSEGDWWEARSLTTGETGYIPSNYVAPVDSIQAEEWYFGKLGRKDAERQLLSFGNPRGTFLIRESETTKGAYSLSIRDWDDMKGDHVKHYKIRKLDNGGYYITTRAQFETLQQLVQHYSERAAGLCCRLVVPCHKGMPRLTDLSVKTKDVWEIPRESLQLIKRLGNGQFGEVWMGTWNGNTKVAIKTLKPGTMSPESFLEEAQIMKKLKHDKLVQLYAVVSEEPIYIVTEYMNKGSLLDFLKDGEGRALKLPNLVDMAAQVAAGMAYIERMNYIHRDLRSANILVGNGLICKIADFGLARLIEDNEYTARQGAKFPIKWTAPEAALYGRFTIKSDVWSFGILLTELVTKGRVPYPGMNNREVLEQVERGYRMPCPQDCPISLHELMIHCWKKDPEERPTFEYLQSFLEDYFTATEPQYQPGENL
Chain of ACVR2B (Q13705 19-512): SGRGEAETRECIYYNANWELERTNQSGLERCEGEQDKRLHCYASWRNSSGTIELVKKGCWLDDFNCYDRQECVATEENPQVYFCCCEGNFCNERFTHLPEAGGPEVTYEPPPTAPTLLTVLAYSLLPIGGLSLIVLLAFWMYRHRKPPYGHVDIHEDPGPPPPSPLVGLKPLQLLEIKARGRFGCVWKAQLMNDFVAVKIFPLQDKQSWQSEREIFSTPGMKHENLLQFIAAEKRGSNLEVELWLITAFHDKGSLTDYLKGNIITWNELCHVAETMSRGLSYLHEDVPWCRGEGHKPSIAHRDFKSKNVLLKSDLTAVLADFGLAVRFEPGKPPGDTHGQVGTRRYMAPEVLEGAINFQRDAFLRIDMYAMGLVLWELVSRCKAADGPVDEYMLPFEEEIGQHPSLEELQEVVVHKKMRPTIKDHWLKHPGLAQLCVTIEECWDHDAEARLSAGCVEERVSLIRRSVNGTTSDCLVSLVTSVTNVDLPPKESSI
T25 sequence (Q9UM73 with tags, fused parts or gaps INS1151T limits assumed): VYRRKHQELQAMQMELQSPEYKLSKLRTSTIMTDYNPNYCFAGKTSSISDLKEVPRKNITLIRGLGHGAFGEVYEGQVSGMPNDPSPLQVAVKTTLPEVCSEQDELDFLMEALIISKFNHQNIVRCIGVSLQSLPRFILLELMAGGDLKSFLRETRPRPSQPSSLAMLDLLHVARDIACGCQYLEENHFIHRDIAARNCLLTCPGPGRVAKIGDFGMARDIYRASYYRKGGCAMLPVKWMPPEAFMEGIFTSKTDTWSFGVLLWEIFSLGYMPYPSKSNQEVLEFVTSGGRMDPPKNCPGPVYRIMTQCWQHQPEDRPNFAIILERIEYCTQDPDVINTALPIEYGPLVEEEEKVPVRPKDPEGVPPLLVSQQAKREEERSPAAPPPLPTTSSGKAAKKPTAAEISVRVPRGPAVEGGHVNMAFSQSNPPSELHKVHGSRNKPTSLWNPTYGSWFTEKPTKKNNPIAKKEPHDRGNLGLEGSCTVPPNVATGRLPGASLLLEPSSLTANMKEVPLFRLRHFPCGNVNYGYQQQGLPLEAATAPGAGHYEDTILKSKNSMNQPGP
T23 sequence (Q92918 whole entry): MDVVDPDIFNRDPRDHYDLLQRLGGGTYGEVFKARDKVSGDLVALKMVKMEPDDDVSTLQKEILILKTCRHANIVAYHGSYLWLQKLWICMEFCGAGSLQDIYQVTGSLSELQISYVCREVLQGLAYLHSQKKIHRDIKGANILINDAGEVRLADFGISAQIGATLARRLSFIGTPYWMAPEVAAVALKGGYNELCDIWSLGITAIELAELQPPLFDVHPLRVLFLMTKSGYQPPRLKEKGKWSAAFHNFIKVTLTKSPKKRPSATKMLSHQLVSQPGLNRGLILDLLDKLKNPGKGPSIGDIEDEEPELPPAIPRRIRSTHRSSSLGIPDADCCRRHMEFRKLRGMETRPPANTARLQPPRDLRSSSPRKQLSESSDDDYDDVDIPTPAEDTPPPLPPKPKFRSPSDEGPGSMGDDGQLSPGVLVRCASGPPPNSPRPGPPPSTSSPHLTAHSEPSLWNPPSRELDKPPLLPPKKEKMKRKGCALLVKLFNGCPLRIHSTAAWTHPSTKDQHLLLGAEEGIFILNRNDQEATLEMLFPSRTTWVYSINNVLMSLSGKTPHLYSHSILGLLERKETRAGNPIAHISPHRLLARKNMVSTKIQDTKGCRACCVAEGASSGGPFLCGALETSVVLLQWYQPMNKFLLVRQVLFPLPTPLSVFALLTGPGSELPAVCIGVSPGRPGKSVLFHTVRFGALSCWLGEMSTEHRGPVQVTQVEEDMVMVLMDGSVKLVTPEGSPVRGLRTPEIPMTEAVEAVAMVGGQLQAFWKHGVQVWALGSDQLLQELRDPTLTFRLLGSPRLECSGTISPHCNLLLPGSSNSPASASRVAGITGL
T16 sequence (P53671 whole entry): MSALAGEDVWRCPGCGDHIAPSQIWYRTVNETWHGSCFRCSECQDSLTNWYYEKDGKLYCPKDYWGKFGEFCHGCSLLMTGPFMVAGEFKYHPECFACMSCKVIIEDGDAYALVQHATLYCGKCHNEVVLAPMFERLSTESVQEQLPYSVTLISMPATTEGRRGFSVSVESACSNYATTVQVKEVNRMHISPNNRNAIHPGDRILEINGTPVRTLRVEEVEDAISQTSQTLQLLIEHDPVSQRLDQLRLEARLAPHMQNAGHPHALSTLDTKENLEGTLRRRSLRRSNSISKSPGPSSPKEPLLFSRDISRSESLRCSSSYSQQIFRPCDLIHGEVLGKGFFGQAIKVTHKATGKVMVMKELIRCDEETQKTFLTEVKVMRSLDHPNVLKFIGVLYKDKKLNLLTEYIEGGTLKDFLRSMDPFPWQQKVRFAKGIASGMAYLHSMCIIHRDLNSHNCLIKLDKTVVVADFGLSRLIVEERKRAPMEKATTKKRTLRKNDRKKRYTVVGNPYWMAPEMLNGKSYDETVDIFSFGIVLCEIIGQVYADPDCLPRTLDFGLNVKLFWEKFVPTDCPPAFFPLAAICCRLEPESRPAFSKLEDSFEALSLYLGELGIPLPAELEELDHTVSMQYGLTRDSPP
Chain of HUNK (P57058 whole entry): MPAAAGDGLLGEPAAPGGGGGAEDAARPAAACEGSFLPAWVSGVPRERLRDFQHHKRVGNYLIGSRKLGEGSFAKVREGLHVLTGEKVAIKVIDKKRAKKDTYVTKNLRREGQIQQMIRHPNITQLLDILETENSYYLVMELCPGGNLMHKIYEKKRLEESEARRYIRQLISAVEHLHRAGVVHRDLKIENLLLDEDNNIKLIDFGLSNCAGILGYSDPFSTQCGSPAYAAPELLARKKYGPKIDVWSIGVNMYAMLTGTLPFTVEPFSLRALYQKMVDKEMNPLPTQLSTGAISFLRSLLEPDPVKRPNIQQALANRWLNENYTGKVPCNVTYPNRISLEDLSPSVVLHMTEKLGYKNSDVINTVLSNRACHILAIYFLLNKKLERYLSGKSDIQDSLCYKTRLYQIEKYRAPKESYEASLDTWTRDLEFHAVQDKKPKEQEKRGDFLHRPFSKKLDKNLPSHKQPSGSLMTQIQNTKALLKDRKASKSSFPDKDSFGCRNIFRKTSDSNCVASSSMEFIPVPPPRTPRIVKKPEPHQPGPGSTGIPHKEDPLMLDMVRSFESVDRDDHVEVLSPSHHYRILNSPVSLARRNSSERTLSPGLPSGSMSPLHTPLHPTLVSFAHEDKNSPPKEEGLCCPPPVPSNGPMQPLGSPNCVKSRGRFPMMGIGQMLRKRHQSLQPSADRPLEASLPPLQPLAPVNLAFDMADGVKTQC
T30 sequence (Q5TCX8 whole entry): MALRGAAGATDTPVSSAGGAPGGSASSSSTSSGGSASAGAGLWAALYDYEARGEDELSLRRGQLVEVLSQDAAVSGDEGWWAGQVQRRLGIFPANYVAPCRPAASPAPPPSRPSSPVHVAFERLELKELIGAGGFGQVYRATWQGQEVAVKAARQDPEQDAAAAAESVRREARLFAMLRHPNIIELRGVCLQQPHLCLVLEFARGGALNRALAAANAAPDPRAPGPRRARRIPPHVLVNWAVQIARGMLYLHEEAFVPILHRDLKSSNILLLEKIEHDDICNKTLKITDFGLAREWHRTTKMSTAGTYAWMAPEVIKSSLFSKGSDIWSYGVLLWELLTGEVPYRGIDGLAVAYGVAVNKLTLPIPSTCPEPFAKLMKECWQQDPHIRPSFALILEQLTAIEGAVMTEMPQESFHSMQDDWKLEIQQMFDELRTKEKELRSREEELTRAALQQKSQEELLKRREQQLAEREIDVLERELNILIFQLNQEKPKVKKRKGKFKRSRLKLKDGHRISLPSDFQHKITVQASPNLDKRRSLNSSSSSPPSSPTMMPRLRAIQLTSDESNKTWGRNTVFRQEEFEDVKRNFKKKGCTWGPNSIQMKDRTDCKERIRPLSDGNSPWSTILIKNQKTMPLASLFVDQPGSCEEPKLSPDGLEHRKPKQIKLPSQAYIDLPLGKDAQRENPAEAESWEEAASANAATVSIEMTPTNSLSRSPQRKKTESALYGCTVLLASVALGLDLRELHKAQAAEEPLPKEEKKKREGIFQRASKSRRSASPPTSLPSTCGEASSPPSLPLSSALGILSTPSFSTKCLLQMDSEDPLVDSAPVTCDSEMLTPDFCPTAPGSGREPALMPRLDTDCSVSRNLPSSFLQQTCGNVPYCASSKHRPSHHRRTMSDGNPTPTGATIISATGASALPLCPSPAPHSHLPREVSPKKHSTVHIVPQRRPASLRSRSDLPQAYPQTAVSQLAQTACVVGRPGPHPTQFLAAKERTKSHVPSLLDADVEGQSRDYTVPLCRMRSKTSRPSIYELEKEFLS

COc1ccc2[nH]c3c(=O)[nH]c4ccc(O)cc4c3c2c1 [Compound 55, 2-Hydroxy-10-methoxy-5,7-dihydro-6H-indolo[2,3-c]quinolin-6-one]
inhibition at 1 µM [1]: 3%
inhibition at 1 µM [2]: 91%
inhibition at 1 µM [3]: 17%
inhibition at 1 µM [4]: 59%
inhibition at 1 µM [5]: -6%
inhibition at 1 µM [6]: 20%
inhibition at 1 µM [7]: 41%
inhibition at 1 µM [8]: 21%
inhibition at 1 µM [9]: 24%
inhibition at 1 µM [10]: 16%
inhibition at 1 µM [11]: 77%
inhibition at 1 µM [12]: 76%
inhibition at 1 µM [13]: 45%
inhibition at 1 µM [14]: 50%
inhibition at 1 µM [15]: 50%
inhibition at 1 µM [16]: 37%
inhibition at 1 µM [17]: 82%
inhibition at 1 µM [18]: 35%
inhibition at 1 µM [19]: 11%
inhibition at 1 µM [20]: 25%
inhibition at 1 µM [21]: 61%
inhibition at 1 µM [22]: 18%
inhibition at 1 µM [23]: 7%
inhibition at 1 µM [24]: 40%
inhibition at 1 µM [25]: 74%
inhibition at 1 µM [26]: 35%
inhibition at 1 µM [27]: 6%
inhibition at 1 µM [28]: 81%
inhibition at 1 µM [29]: 61%
inhibition at 1 µM [30]: 34%
inhibition at 1 µM [31]: 20%
inhibition at 1 µM [32]: 32%
inhibition at 1 µM [33]: 60%
inhibition at 1 µM [34]: 4%
inhibition at 1 µM [35]: 50%
inhibition at 1 µM [36]: 15%
inhibition at 1 µM [37]: 95%
inhibition at 1 µM [38]: 18%
inhibition at 1 µM [39]: 80%
